According to US6960470B1 (priority 1998, dated 2005):

Test system: hippocampal slices from wt and Δ9 mutant (PS-1) animals
Format: cell-based
Settings: flunitrazepam in the bathing medium; Δ9 mutant slices

CN1C(=O)CN=C(c2ccccc2F)c2cc([N+](=O)[O-])ccc21 [flunitrazepam]
potentiation in mutants (+FLU) compared with the wt (−FLU): potentiation to almost the wt levels
